Source: US20250108358A1, “PHOTOCHEMICALLY DRIVEN REGENERATION OF CARBON DIOXIDE SORBENTS” (UT-Battelle, LLC, priority 2023, published 2025)

Columns and labels:
[1] = Total inorganic carbon (TIC) analysis, simulated system with KHCO3
Protocol: (§1) Total inorganic carbon analysis: To quantify the amount of total inorganic carbon converted to CO2, the quantities of bicarbonate in the solution before and after the irradiation were determined using a total inorganic carbon analyzer consisting of an acidification module and a coulometric detection. […] Air was used as carrier gas (100 mL/min) in all experiments. 1 mM KHCO3 solution was tested similarly as the reference sample. Calculations were based on sample volume and 1 M Na2CO3 was used as the standard solution.

[2] = Total inorganic carbon (TIC) analysis, CO2-loaded glycine system; settings: for reduction in the inorganic carbon content: vs CO2-loaded glycine solution
Protocol: See F. M. Brethome et al., Nat. Energy 2018, 3, 553-559 and R. Custelcean et al., Ind. Eng. Chem. Res. 2019, 58, 23338-23346.
as §1

[3] = pH measurements of mPAH 1 solutions under 355 nm lamp irradiation; format: physicochemical
Excerpt: Light sources: The light source, referred as the 355 nm lamp thereafter, is a portion of the output of an Oriel 200 W mercury-xenon lamp, which was selected using a 2″ round Oriel broadband filter centered at 355 nm with a full width at half maximum of ˜150 nm and highest transmission of ˜90% (Filters 51664 and 59814). The photon fluxes at the sample position was ˜500 μmol·m^−2·s^−1, which measured using a handheld meter.
pH measurements and absorption spectra measurements: Typically for all experiments using the 355 nm lamp, 6 mL of solution mixtures were placed in a glass vial of diameter ˜2 cm and pH variations of the solutions upon light exposure were monitored continuously using a pH meter. Solutions were exposed to air and continuously stirred during pH measurements and sealed and kept in the dark without stirring for the mPAH 1 reverse reaction. Calculated amount of bicarbonate was replaced prior to second and third cycles. All absorption spectra during a given reaction event were acquired using a UV-vis spectrometer by taking a small amount (˜200 μL) of solution. Co-existence of different mPAH 1 conformers were verified using 1H NMR spectroscopy and theoretical calculations.

[4] = Head space CO2 release measurement (infrared sensor, 470 nm LED); settings: mPAH 2/morpholine
Excerpt: This step is important to reproducibly measure the CO2 release as described below. […] After the reading of CO2 was steady, irradiation was applied from outside of the glass chamber using a 470 nm LED with moderate power (˜ 13 mW/cm^2). The CO2 released to the chamber was monitored using a head space method, as also used in previous studies. The concentration of CO2 gas in the chamber was monitored by the sensor and compared to that of a standard. Not only does this method directly measure the CO2 gas released, but also it is suitable for studying relatively small samples with good sensitivity. […] Addition of a strong acid leads to complete decomposition of the bicarbonate and CO2 release. […] It also reacts with CO2 via an acid-base reaction to form bicarbonate salt.

Solubility in water = format: physicochemical

SMILES	total inorganic carbon in the solution converted to CO2 ([1]; 1 mM mPAH 1 + 1 mM KHCO3 (simulated system), upon irradiation) [%]	total bicarbonate converted to CO2 ([1]; 2 mM mPAH 1 pre-irradiated 30 min, mixed with equal volume 2 mM KHCO3, reaction without irradiation) [%]	total bicarbonate converted to CO2 ([1]; 2 mM mPAH 1 pre-irradiated, mixed with equal volume 2 mM KHCO3, continuous irradiation) [%]	reduction in the inorganic carbon content ([2]; 1 mM mixture of CO2-loaded glycine and mPAH 1, upon irradiation)	reduction in the inorganic carbon content ([2]; 20 mM mixture of CO2-loaded glycine and mPAH 1, upon irradiation) [%]	efficiency of conversion of total inorganic carbon to CO2 ([2]; amino acid (AA)-based DAC systems, with respect to initial concentrations)	rate of pH increase owing to CO2 release ([3]; 1 mM mPAH 1 + 1 mM KHCO3, second cycle of irradiation) [pH units/hour]	rate of pH increase owing to CO2 release ([3]; 1 mM mPAH 1 + 1 mM KHCO3, third cycle of irradiation) [pH units/hour]	pH increment ([3]; 1 mM mPAH 1 + 1 mM KHCO3, third cycle performed only 4 hours after the second cycle) [pH units/hour]	time for full reverse reaction to the initial trans isomer ([3]; mPAH 1 itself, in the dark) [h]	time after start of irradiation at which head space [CO2] rose [4] [min]	solubility in water (Solubility in water)
O=S(=O)([O-])CCC[n+]1c(/C=C/c2cc(S(=O)(=O)[O-])cc3cn[nH]c23)sc2ccccc21.[Na+] [mPAH 1]	55	~3	~50	approximately 68%	~78	68%-78%	0.35	0.11	0.31	4 to 6	–	–
COC(=O)c1ccc2sc(/C=C/c3cc(S(=O)(=O)[O-])cc4cn[nH]c34)[n+](CCCS(=O)(=O)O)c2c1 [mPAH 2]	–	–	–	–	–	–	–	–	–	–	~5	about 30 mM
